Patent publication US20240374739A1, “BILE ACID CONJUGATE” (Curtin University, priority 2021, published 2024)
“Also recorded” adds a separate entry of the source.

Assays:
[1] = tested on: rat model of repeated sub-concussion; assay: Beamwalk test, rat model of repeated sub-concussion (Experimental Example 6); assay type: in vivo, Female PVG rats; details: rats, 12-week repeated sub-concussion, 2 cm beam; probucol 0.1% w/w, HA-1 0.2% w/w in diet (FIG. 20B)
Excerpt: (§1) Female PVG rats aged 5-7 weeks were used. Under complete anaesthesia with isoflurane, a 25 g weight was dropped onto lambda of the skull from a 1 m height. This was repeated consecutively for 10 times per procedure. The procedure was repeated 3 times per week (i.e., Monday, Wednesday, Friday) for the duration of 12 weeks. Sham group rats received the same procedure without the weight drops. The probucol treatment group received probucol which was supplemented into the diet at 0.1% w/w. The HA-1 treatment group received HA-1 also in the diet at 0.2% w/w for the entire duration of the study.
After the completion of 12-week sub-concussion procedures, neuromotor function was tested with established rotarod and beamwalk tests. On beamwalk, the higher the slips show, the more impairment. On rotarod, the lower the latency indicates the more impairment.

[2] = target: T1, Acetylcholinesterase (AChE) (Homo sapiens, UniProt P22303); assay: Acetylcholinesterase (AChE) activity, Amplex Red reagent-based assay, Alzheimer's disease model; assay type: cell-based; details: probucol 20 μM, SPQ 10 μM, HA-1 10 μM, rivastigmine 2 μM, 24 hours
T1 construct: We assayed for AChE activity and ACh release in control, neurodegenerated AD and drug treated AD cells; endogenous in cells; host or cells: neurodegenerated cells of a human stem cell AD model derived from perinatal tissue (amniotic membrane mesenchymal stem cells are named for the MTT assay)
Description: Perinatal tissue derived human stem cell model for Alzheimer's disease (AD) was prepared using proprietary protocols to test the effect of new drug entities. Drug treatment was for 24 h in all the assays.
Acetylcholinesterase (AChE) that regulates hydrolysis of acetylcholine (ACh) in the brain, is an important target for treatment of Alzheimer's disease (AD), a feature of which is ACh deficiency. We assayed for AChE activity and ACh release in control, neurodegenerated AD and drug treated AD cells.

[3] = tested on: Rats subjected to sub-concussion (SC); assay: Beam walk test, brain injury (sub-concussion) study (Experimental Example 3); assay type: in vivo
Excerpt: Repeated sub-concussive head impacts are reported to impair psychomotor function. Rats were subjected to sham procedure, sub-concussion (SC) with control diet (AlN93M), SC with probucol, SC with aged garlic extract (AGE), or SC with HA-1 for 12 weeks.
Both rotarod and beam walk tests assess neuromotor function. On beam walk, the higher the slips show the more impairment. On rotarod, the lower the latency indicates the more impairment.

[4] = tested on: rat model of repeated sub-concussion; assay: Neuronal oxidative stress (8dOHG expression), rat model of repeated sub-concussion; assay type: in vivo, Female PVG rats; details: rats, 12-week repeated sub-concussion
Excerpt: as §1
(§2) The rats were then sacrificed to obtain brain tissue for further analyses.

diabetic db/db mice [5] = assay: BBB integrity (IgG extravasation) in diabetic db/db mice; assay type: in vivo; details: for IgG extravasation in CTX: 28-week old
Excerpt: (§3) In this study, 4-5 week old diabetic db/db mice were put onto a diet containing probucol 0.1% (w/w) or HA-1 0.2% (w/w) for either 10 or 24 weeks, till the age of 14 or 28 weeks, respectively. Passive avoidance test was used to assess short-term memory. Subsequently, the mice were sacrificed to obtain plasma and brain tissue samples for further analyses.

OC-1 cells = assay: Cobalt chloride hypoxia assay; assay type: cell-based; details: cells pre-treated with CoCl2 at 100 μM for 24 hours, microscopic examination
Description: This assay is used to determine whether an intervention can reverse hypoxic-induced cell death brought about by cobalt chloride. For this assay, cells are pre-treated with CoCl2 at 100 μM for 24 hours, followed by microscopic examination of cell morphology and viability.

diabetic db/db mice [6] = assay: Oxidative stress and neuroinflammation (8dOHG, GFAP, Iba-1 expression) in diabetic db/db mice; assay type: in vivo; details: for expression of 8dOHG in HPF: db/db mice (FIG. 28A); for expression of 8dOHG in CTX: db/db mice (FIG. 28B); for expression of GFAP in HPF: db/db mice (FIG. 28C); for expression of GFAP in CTX: db/db mice (FIG. 28D); for expression of Iba-1 in HPF: db/db mice (FIG. 28E); for expression of Iba-1 in CTX: db/db mice (FIG. 28F)
Excerpt: as §3
GFAP is a marker of astrocyte activation, which may confer anti-inflammatory effect.
Iba-1 expression indicates microglial activation, which is a surrogate marker of neuroinflammation.

diabetic db/db mice [7] = assay: Novel Object Recognition Test in diabetic db/db mice (Experimental Example 5); assay type: in vivo; details: at 14 weeks of age
Description: (§4) Cognitive function in diabetic db/db mice was tested with Passive Avoidance and Novel Object Recognition tests. For both tests, the higher the value, the better the memory.
(§5) The mice were administered with either probucol, HA-1 or apoCIII antisense from 5 weeks of age, and cognitive performance was tested at 14 weeks of age.

diabetic db/db mice [8] = assay: Small intestinal apoB and Aβ in diabetic db/db mice; assay type: in vivo
Excerpt: as §3

diabetic db/db mice [9] = assay: Passive Avoidance Test in diabetic db/db mice (Experimental Example 5); assay type: in vivo; details: administered from 5 weeks of age, tested at 14 weeks
Description: as §4, §5

[10] = tested on: rat model of repeated sub-concussion; assay: Blood-brain barrier integrity (IgG extravasation), rat model of repeated sub-concussion; assay type: in vivo, Female PVG rats; details: rats, 12-week repeated sub-concussion
Excerpt: as §1, §2
The increase of IgG extravasation in SC rats indicates disruption of the BBB, allowing blood-borne IgG to leak into the brain.

[11] = tested on: Neurodegenerated cells (perinatal tissue derived human stem cell model for Parkinson's disease); assay: Mitochondrial membrane potential by TMRE assay, Parkinson's disease model; assay type: cell-based; details: PD model; probucol 20 μM, SPQ 10 μM, HA-1 10 μM, L-Dopa 50 μM, 24 hours
Description: Perinatal tissue derived human stem cell model for Parkinson's disease (PD) was prepared using proprietary protocols to test the effect of new drug entities. Drug treatment was for 24 hours in all the assays.
Dysfunctional mitochondria and alterations in the mitochondrial membrane potential promote neurodegeneration seen in Parkinson's disease. For assessing the changes in mitochondrial membrane potential, we used TMRE (tetramethylrhodamine ethyl ester) to quantify the changes in live cells by fluorimetry.
Neurodegenerated cells were incubated with probucol (20 μM), SPQ (10 μM), HA-1 (10 μM) and L-Dopa (50 μM) for 24 hours (p<0.05; *p<0.05, **p<0.001, ***p<0.0001, ns=non-significant, n=3).

diabetic db/db mice [12] = assay: Diabetic phenotype: plasma glucose, triglycerides, insulin, cholesterol in diabetic db/db mice; assay type: in vivo; details: for plasma cholesterol: 14 and 28 weeks of age (FIGS. 23G and 23H)
Excerpt: as §3
Elevation in plasma glucose, triglycerides and insulin are typical signs of diabetes, with cholesterol to lesser extent. Levels of plasma glucose, plasma triglyceride, plasma insulin, and plasma cholesterol levels were measured at 14 weeks of age and at 28 weeks of age (FIG. 23) (*p<0.05, **p<0.01, ***p<0.001, ****p<0.0001, n=12).

[13] = sub-concussion, 1, 2 and 3 cm beam, at 12 weeks
[14] = sub-concussion, 2 cm beam, after 6 weeks
[15] = 14 weeks of age, probucol 0.1% (w/w), HA-1 0.2% (w/w) in diet

T1 sequence (P22303 32-614): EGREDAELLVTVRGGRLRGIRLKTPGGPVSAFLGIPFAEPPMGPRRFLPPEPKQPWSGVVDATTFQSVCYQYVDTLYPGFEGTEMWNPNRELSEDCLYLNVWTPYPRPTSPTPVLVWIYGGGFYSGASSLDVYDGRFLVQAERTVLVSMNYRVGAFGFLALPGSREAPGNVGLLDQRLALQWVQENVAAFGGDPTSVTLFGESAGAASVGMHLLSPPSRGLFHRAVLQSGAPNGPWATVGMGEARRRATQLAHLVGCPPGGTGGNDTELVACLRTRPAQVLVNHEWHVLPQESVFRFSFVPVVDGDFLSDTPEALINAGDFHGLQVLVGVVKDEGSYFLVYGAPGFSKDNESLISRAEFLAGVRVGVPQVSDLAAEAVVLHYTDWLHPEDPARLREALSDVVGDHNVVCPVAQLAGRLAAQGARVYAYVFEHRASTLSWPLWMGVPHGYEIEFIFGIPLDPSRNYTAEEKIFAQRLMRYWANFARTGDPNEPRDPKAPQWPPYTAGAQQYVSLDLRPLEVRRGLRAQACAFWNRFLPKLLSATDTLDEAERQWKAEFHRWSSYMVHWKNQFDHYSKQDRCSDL

CC(=O)O[C@@H]1CC[C@@]2(C)[C@H](CC[C@@H]3[C@@H]2CC[C@]2(C)[C@@H]([C@H](C)CCC(=O)Oc4c(C(C)(C)C)cc(SC(C)(C)Sc5cc(C(C)(C)C)c(O)c(C(C)(C)C)c5)cc4C(C)(C)C)CC[C@@H]32)C1 [HA-1, 2,6-di-tert-butyl-4-((2-((3,5-di-tert-butyl-4-hydroxyphenyl)thio)propan-2-yl)thio)phenyl (4R)-4-[(3R,5R,8R,9S,10S,13R,14S,17R)-3-acetoxy-10,13-dimethyl-2,3,4,5,6,7,8,9,11,12,14,15,16,17-tetradecahydro-1H-cyclopenta[a]phenanthren-17-yl]pentanoate]
foot slips in beamwalk test [1]: completely normalised | Acetylcholinesterase (AChE) activity [2]: inhibition of acetylcholinesterase (AChE) similar to rivastigmine | number of slips in beam walk test [3, 13]: did not show significant preventative effects | number of slips in beam walk test [3, 14]: significant reduction in slips | expression of 8dOHG (oxidative stress) in HPF and CTX [4]: substantially attenuated the cerebral oxidative stress levels | IgG extravasation in HPF (diabetic db/db mice [5]; 14 weeks of age): significantly attenuated | IgG extravasation in CTX (diabetic db/db mice [5]): significantly reduced | IgG extravasation in HPF (diabetic db/db mice [5]; 28 weeks): significantly attenuated the BBB breakdown | cell morphology (OC-1 cells): optimal morphology | expression of 8dOHG in HPF (diabetic db/db mice [6]): better efficacy particularly in HPF | expression of 8dOHG in CTX (diabetic db/db mice [6]): attenuated | expression of GFAP in HPF (diabetic db/db mice [6]): significant recovery | expression of GFAP in CTX (diabetic db/db mice [6]): ameliorated similarly | expression of Iba-1 in HPF (diabetic db/db mice [6]): substantially reduced the expression of Iba-1 | expression of Iba-1 in CTX (diabetic db/db mice [6]): substantially reduced the expression of Iba-1 | Novel Object Recognition Test preference index (diabetic db/db mice [7]): no significant effects | small intestinal Aβ (diabetic db/db mice [8]; 14 weeks of age): comparable or superior effects | small intestinal apoB (diabetic db/db mice [8]; 14 weeks of age): significantly attenuated | small intestinal Aβ (diabetic db/db mice [8]; 28 weeks of age): comparable or superior effects | small intestinal apoB (diabetic db/db mice [8]; 28 weeks of age): no longer seen | Passive Avoidance Test latency (short-term memory) (diabetic db/db mice [9]): completely restore the memory; also recorded: equivalent latency to Neg control and probucol group mice | IgG extravasation in cortex (CTX) [10]: more effective than probucol in attenuating BBB disruption | IgG extravasation in hippocampal formation (HPF) [10]: more effective than probucol in attenuating BBB disruption | mitochondrial membrane potential (TMRE) [11]: maintain the mitochondrial membrane potential | plasma cholesterol (diabetic db/db mice [12]): no beneficial effects on plasma cholesterol | plasma insulin (diabetic db/db mice [12]; 14 weeks of age): significantly reduced | plasma triglycerides (diabetic db/db mice [12]; 14 weeks of age): significantly attenuated plasma triglycerides | plasma / blood glucose (diabetic db/db mice [12]; [15]): modest decrease in blood glucose | plasma / blood glucose (diabetic db/db mice [12]; 28 weeks of age): significantly reduced blood glucose with HA-1 presenting greater effects | plasma insulin (diabetic db/db mice [12]; 28 weeks of age): lost the ameliorative effects on insulin | plasma triglycerides (diabetic db/db mice [12]; 28 weeks of age): significantly reduced plasma triglycerides

CC1(C)SC2(C=C(C(C)(C)C)C(=O)C(C(C)(C)C)=C2)C2(C=C(C(C)(C)C)C(=O)C(C(C)(C)C)=C2)S1 [SPQ, 2,4,9,11-tetrakis(1,1-dimethylethyl)-14,14-dimethyl-13,15-dithiadispiro[5.0.5.3]pentadeca-1,4,8,11-tetraene-3,10-dione]
Acetylcholinesterase (AChE) activity [2]: inhibition of acetylcholinesterase (AChE) similar to rivastigmine | mitochondrial membrane potential (TMRE) [11]: enhanced restoration of the mitochondrial membrane potential

CC(C)(Sc1cc(C(C)(C)C)c(O)c(C(C)(C)C)c1)Sc1cc(C(C)(C)C)c(O)c(C(C)(C)C)c1 [probucol, 2,6-ditert-butyl-4-[2-(3,5-ditert-butyl-4-hydroxyphenyl)sulfanylpropan-2-ylsulfanyl]phenol]
foot slips in beamwalk test [1]: modestly attenuated | Acetylcholinesterase (AChE) activity [2]: inhibition of acetylcholinesterase (AChE) similar to rivastigmine | number of slips in beam walk test [3, 13]: did not show significant preventative effects | number of slips in beam walk test [3, 14]: did not indicate any beneficial effects | expression of 8dOHG (oxidative stress) in HPF and CTX [4]: some increase of 8dOHG particularly in the CTX | IgG extravasation in HPF (diabetic db/db mice [5]; 14 weeks of age): significantly attenuated | IgG extravasation in CTX (diabetic db/db mice [5]): no beneficial effects on CTX IgG extravasation | IgG extravasation in HPF (diabetic db/db mice [5]; 28 weeks): did not show BBB protection | cell morphology (OC-1 cells): normal morphology | expression of 8dOHG in HPF (diabetic db/db mice [6]): attenuated | expression of 8dOHG in CTX (diabetic db/db mice [6]): attenuated | expression of GFAP in HPF (diabetic db/db mice [6]): no benefits | expression of GFAP in CTX (diabetic db/db mice [6]): ameliorated similarly | expression of Iba-1 in HPF (diabetic db/db mice [6]): no beneficial effects | expression of Iba-1 in CTX (diabetic db/db mice [6]): no beneficial effects | Novel Object Recognition Test preference index (diabetic db/db mice [7]): no significant effects | small intestinal Aβ (diabetic db/db mice [8]; 14 weeks of age): significantly attenuated | small intestinal apoB (diabetic db/db mice [8]; 14 weeks of age): no significant reduction | small intestinal Aβ (diabetic db/db mice [8]; 28 weeks of age): significantly attenuated | Passive Avoidance Test latency (short-term memory) (diabetic db/db mice [9]): completely prevented the memory loss | IgG extravasation in cortex (CTX) [10]: some reduction in the CTX IgG extravasation | IgG extravasation in hippocampal formation (HPF) [10]: no protection against BBB disruption in HPF | mitochondrial membrane potential (TMRE) [11]: maintain the mitochondrial membrane potential | plasma cholesterol (diabetic db/db mice [12]): no beneficial effects on plasma cholesterol | plasma insulin (diabetic db/db mice [12]; 14 weeks of age): significantly reduced | plasma triglycerides (diabetic db/db mice [12]; 14 weeks of age): significantly attenuated plasma triglycerides | plasma / blood glucose (diabetic db/db mice [12]; [15]): no significant effects | plasma / blood glucose (diabetic db/db mice [12]; 28 weeks of age): significantly reduced blood glucose | plasma insulin (diabetic db/db mice [12]; 28 weeks of age): lost the ameliorative effects on insulin | plasma triglycerides (diabetic db/db mice [12]; 28 weeks of age): significantly reduced plasma triglycerides
